ChEMBL document CHEMBL1148189, “New diterpenes from the gorgonian Solenopodium excavatum” (1993)
In brackets after ≈: the same amount, converted by molar mass. Activity calls are given as the source filed them. The rule behind the calls is not given here.

Test system: P388
Assay: Cytotoxicity against mouse P388 cells
Type: functional

`CC(=O)O[C@H]1C[C@@H](OC(C)=O)/C(C)=C\[C@@H]2OC(=O)[C@]3(C)O[C@]23[C@H](OC(C)=O)[C@H]2[C@@](C)(O)[C@H](OC(C)=O)C=C[C@]12C` was tested. Which Activity did it give?
The Activity was “inactive”.

For `CC(=O)O[C@@H]1[C@H]2[C@@H](C)[C@@H](O)[C@@H](O)[C@H](OC(C)=O)[C@]2(C)[C@@H](OC(C)=O)[C@H](OC(C)=O)C/C(C)=C\[C@@H]2OC(=O)[C@]3(C)O[C@@]213`, which Activity is on record?
Its Activity is “inactive”.

For `CC(=O)O[C@H]1C[C@@H]2O[C@]2(C)[C@@H]2[C@@H](OC(C)=O)[C@]34O[C@@]3(C)C(=O)O[C@H]4/C=C(/CO)[C@H](OC(C)=O)C[C@H](OC(C)=O)[C@@]12C`, which Activity is on record?
Its Activity is “inactive”.

With `CC(=O)OC/C1=C/[C@@H]2OC(=O)[C@]3(C)O[C@]23[C@H](OC(C)=O)[C@H]2[C@@]3(C)O[C@H]3C[C@H](OC(C)=O)[C@]2(C)[C@@H](OC(C)=O)C[C@H]1OC(C)=O` as the compound, how does the Activity read?
The Activity was “inactive”.

How did the Activity turn out when `CC(=O)O[C@@H]1[C@@H]2O[C@]2(C)[C@@H]2[C@@H](OC(C)=O)[C@]34O[C@@]3(C)C(=O)O[C@H]4/C=C(/C)C[C@@H](OC(C)=O)[C@H](OC(C)=O)[C@@]2(C)[C@H]1OC(C)=O` was run?
The Activity was “inactive”.

For `CC(=O)O[C@@H]1[C@H]2[C@@]3(C)O[C@H]3[C@@H](O)[C@H](OC(C)=O)[C@]2(C)[C@@H](OC(C)=O)[C@H](OC(C)=O)C/C(C)=C\[C@@H]2OC(=O)[C@]3(C)O[C@@]213`, which Activity is on record?
The Activity was “inactive”.

How did the EC50 (read-out: ED50 (the source's name)) turn out when `CCCC(=O)O[C@@H]1C/C(C)=C\[C@@H]2OC(=O)[C@]3(C)O[C@]23[C@H](OC(C)=O)[C@H]2C(C)=C[C@@H](O)[C@H](OC(C)=O)[C@]2(C)[C@H]1OC(C)=O` [STECHOLIDE I] was run?
Its EC50 is 23 µg/mL (≈ 38.8 µM).

Which Activity does the source give for `CCCC(=O)O[C@@H]1C/C(C)=C\[C@@H]2OC(=O)[C@]3(C)O[C@]23[C@H](OC(C)=O)[C@H]2[C@@]3(C)O[C@H]3[C@@H](O)[C@H](OC(C)=O)[C@]2(C)[C@H]1OC(C)=O` here?
The Activity was “inactive”.

Which Activity does the source give for `CC(=O)O[C@@H]1[C@H]2C(C)=C[C@@H](O)[C@H](OC(C)=O)[C@]2(C)[C@@H](OC(C)=O)[C@H](OC(C)=O)C/C(C)=C\[C@@H]2OC(=O)[C@]3(C)O[C@@]213` here?
The Activity was “inactive”.
